Measured values as given in the NIST ThermoML archive (doi:10.1016/j.jct.2018.10.012).

Details: Liquid; for vapor or sublimation pressure: Ebulliometric method (Recirculating still); for viscosity / mass density: 101.33 kPa; for viscosity: Capillary tube (Ostwald / Ubbelohde) method; for mass density: Pycnometric method

CCCCCCCCCCCCCCCC(=O)OC [methyl hexadecanoate]
Details	vapor or sublimation pressure [kPa]
419.15 K	0.213
423.15 K	0.279
425.25 K	0.306
428.35 K	0.346
430.75 K	0.399
432.25 K	0.425
433.35 K	0.452
436.25 K	0.532
438.45 K	0.585
440.15 K	0.624
442.35 K	0.705
444.15 K	0.771

CCCCCCCCCCCCCCCC(=O)OCC(CC)CCCC (stereo unspecified) [2-ethylhexyl palmitate]
Details	mass density [kg/m3]	vapor or sublimation pressure [kPa]	viscosity [mPa·s]
298.15 K	855.1	–	11.78
303.15 K	851	–	10.01
308.15 K	847.9	–	8.28
313.15 K	844.5	–	7.16
318.15 K	840.9	–	6.26
323.15 K	837.4	–	5.64
328.15 K	834	–	4.94
333.15 K	830.3	–	4.41
338.15 K	826.7	–	3.94
343.15 K	823.3	–	3.55
348.15 K	820.1	–	3.24
353.15 K	816.8	–	2.94
358.15 K	813.2	–	2.71
363.15 K	810	–	2.49
368.15 K	806.9	–	2.29
476.95 K	–	0.307	–
479.35 K	–	0.333	–
482.35 K	–	0.387	–
484.95 K	–	0.427	–
488.05 K	–	0.493	–
490.35 K	–	0.547	–
491.45 K	–	0.573	–
493.85 K	–	0.627	–
496.05 K	–	0.68	–
497.35 K	–	0.733	–
499.35 K	–	0.8	–
500.85 K	–	0.853	–

CCCCCCCCCCCCCCCCCC(=O)OCC(CC)CCCC (stereo unspecified) [2-ethylhexyl stearate]
Details	mass density [kg/m3]	vapor or sublimation pressure [kPa]	viscosity [mPa·s]
298.15 K	855.4	–	15.04
303.15 K	851.4	–	12.55
308.15 K	847.9	–	10.62
313.15 K	844.9	–	9.06
318.15 K	841.1	–	7.84
323.15 K	837.7	–	6.81
328.15 K	834.4	–	6.04
333.15 K	831.1	–	5.34
338.15 K	827.8	–	4.79
343.15 K	824.5	–	4.36
348.15 K	821.1	–	3.92
353.15 K	817.2	–	3.58
358.15 K	814.2	–	3.27
363.15 K	811.2	–	3.02
368.15 K	808	–	2.8
477.05 K	–	0.213	–
479.65 K	–	0.253	–
482.25 K	–	0.28	–
483.45 K	–	0.307	–
485.25 K	–	0.333	–
487.55 K	–	0.373	–
488.85 K	–	0.4	–
491.25 K	–	0.44	–
493.25 K	–	0.493	–
495.25 K	–	0.547	–
496.25 K	–	0.573	–
498.05 K	–	0.613	–
